According to patent US7709507B2 (Allergan, Inc., priority 2006, dated 2010):
Like-named read-outs stand apart in the source and are kept apart here.

Experiments:
Type in all cases: cell-based
alpha2A receptor = target: T1, alpha2A receptor (Homo sapiens, UniProt P08913); assay: Receptor Selection and Amplification Technology (RSAT) assay, Alpha 2A; conditions: for Alpha 2A EC50: RSAT, transfected NIH-3T3 cells with Gq/i5, not active = at concentrations less than 10 micromolar
T1 construct: expressed in transfected cells; host or cells: NIH-3T3 cells
T1 sequence (P08913 1-465): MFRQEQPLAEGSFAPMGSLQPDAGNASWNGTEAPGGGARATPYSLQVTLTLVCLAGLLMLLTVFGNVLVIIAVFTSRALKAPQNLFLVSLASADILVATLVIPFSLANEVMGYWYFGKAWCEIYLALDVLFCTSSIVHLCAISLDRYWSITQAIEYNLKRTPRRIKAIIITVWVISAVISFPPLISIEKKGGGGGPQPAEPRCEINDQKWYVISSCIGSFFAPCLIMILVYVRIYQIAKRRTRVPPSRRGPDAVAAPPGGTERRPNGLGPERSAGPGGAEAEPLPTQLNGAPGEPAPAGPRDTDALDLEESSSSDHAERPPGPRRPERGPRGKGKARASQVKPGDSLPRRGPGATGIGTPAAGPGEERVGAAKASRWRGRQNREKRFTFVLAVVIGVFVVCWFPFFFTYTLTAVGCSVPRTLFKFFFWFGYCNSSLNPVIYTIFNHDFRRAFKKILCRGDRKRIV
Method: (§1) Receptor Selection and Amplification Technology (RSAT) Assay
(§2) The RSAT assay measures a receptor-mediated loss of contact inhibition that results in selective proliferation of receptor-containing cells in a mixed population of confluent cells. The increase in cell number is assessed with an appropriate transfected marker gene such as β-galactosidase, the activity of which can be easily measured in a 96-well format. Receptors that activate the G protein, Gq, elicit this response. Alpha2 receptors, which normally couple to Gi, activate the RSAT response when coexpressed with a hybrid Gq protein that has a Gi receptor recognition domain, called Gq/i5.
(§3) NIH-3T3 cells are plated at a density of 2×10^6 cells in 15 cm dishes and maintained in Dulbecco's modified Eagle's medium supplemented with 10% calf serum. One day later, cells are cotransfected by calcium phosphate precipitation with mammalian expression plasmids encoding p-SV-β-galactosidase (5-10 μg), receptor (1-2 μg) and G protein (1-2 μg). 40 μg salmon sperm DNA may also be included in the transfection mixture. […] Cells are thawed and 100 μl added to 100 μl aliquots of various concentrations of drugs in triplicate in 96-well dishes. Incubations continue 72-96 hr at 37° C. After washing with phosphate-buffered saline, β-galactosidase enzyme activity is determined by adding 200 μl of the chromogenic substrate (consisting of 3.5 mM o-nitrophenyl-β-D-galactopyranoside and 0.5% nonidet P-40 in phosphate buffered saline), incubating overnight at 30° C. and measuring optical density at 420 nm. The absorbance is a measure of enzyme activity, which depends on cell number and reflects a receptor-mediated cell proliferation. The efficacy or intrinsic activity is calculated as a ratio of the maximal effect of the drug to the maximal effect of a standard full agonist for each receptor subtype. Brimonidine, also called UK14304, the chemical structure of which is shown below, is used as the standard agonist for the alpha2A, alpha2B and alpha2C receptors. The EC50 is the concentration at which the drug effect is half of its maximal effect.
(§4) EC50 values are nanomolar. NA stands for “not active” at concentrations less than 10 micromolar. IA stands for “intrinsic activity.”

alpha2B receptor = target: T2, alpha2B receptor (Homo sapiens, UniProt P18089); assay: Receptor Selection and Amplification Technology (RSAT) assay, Alpha 2B; conditions: for EC50: transfected NIH-3T3 cells with Gq/i5, not active = at concentrations less than 10 micromolar; for Alpha 2B IA (intrinsic activity): ratio of maximal effect to that of standard full agonist brimonidine (UK14304)
T2 construct: expressed in transfected cells; host or cells: NIH-3T3 cells
T2 sequence (P18089 1-450): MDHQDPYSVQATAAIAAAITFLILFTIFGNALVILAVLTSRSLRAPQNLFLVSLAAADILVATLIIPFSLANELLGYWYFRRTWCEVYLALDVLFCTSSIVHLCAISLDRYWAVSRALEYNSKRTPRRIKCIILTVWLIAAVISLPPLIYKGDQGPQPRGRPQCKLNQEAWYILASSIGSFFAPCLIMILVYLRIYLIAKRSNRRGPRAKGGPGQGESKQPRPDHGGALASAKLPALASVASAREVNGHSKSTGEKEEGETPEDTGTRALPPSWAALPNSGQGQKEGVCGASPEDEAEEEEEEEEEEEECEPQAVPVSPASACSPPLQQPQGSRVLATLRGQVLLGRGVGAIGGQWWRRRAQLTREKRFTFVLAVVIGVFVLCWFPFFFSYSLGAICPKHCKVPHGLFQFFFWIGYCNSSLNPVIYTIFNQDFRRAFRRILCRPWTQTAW
Method: as §1, §2
NIH-3T3 cells are plated at a density of 2×10^6 cells in 15 cm dishes and maintained in Dulbecco's modified Eagle's medium supplemented with 10% calf serum. One day later, cells are cotransfected by calcium phosphate precipitation with mammalian expression plasmids encoding p-SV-β-galactosidase (5-10 μg), receptor (1-2 μg) and G protein (1-2 μg). 40 μg salmon sperm DNA may also be included in the transfection mixture. Fresh media is added on the following day and 1-2 days later, cells are harvested and frozen in 50 assay aliquots. Cells are thawed and 100 μl added to 100 μl aliquots of various concentrations of drugs in triplicate in 96-well dishes. Incubations continue 72-96 hr at 37° C. After washing with phosphate-buffered saline, β-galactosidase enzyme activity is determined by adding 200 μl of the chromogenic substrate (consisting of 3.5 mM o-nitrophenyl-β-D-galactopyranoside and 0.5% nonidet P-40 in phosphate buffered saline), incubating overnight at 30° C. and measuring optical density at 420 nm. The absorbance is a measure of enzyme activity, which depends on cell number and reflects a receptor-mediated cell proliferation. The efficacy or intrinsic activity is calculated as a ratio of the maximal effect of the drug to the maximal effect of a standard full agonist for each receptor subtype. Brimonidine, also called UK14304, the chemical structure of which is shown below, is used as the standard agonist for the alpha2A, alpha2B and alpha2C receptors. The EC50 is the concentration at which the drug effect is half of its maximal effect.
The results of the RSAT assay with several exemplary compounds of the invention are disclosed in Table 1 above together with the chemical formulas of these exemplary compounds. EC50 values are nanomolar. NA stands for “not active” at concentrations less than 10 micromolar. IA stands for “intrinsic activity.”

alpha2C receptor = target: T3, alpha2C receptor (Homo sapiens, UniProt P18825); assay: Receptor Selection and Amplification Technology (RSAT) assay, Alpha 2C; conditions: for Alpha 2C IA (intrinsic activity): ratio of maximal effect to that of standard full agonist brimonidine (UK14304)
T3 construct: expressed in transfected cells; host or cells: NIH-3T3 cells
T3 sequence (P18825 1-462): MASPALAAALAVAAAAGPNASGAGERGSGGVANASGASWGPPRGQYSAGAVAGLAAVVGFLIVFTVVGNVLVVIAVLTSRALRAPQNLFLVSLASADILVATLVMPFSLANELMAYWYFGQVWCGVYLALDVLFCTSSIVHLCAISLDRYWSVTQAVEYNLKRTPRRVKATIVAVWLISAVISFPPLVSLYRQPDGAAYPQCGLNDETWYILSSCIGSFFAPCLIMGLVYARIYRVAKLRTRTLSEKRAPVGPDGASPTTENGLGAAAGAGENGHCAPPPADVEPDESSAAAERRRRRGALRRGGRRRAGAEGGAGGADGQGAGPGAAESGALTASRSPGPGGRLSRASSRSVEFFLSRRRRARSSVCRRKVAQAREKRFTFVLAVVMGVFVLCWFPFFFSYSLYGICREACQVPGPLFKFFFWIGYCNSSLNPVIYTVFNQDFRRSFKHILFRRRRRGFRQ
Method: as §1, §2, §3, §4

[1] = RSAT, transfected NIH-3T3 cells with Gq/i5, not active = at concentrations less than 10 micromolar
[2] = RSAT, transfected NIH-3T3 cells with Gq/i5, not active = at concentrations less than 10 micromolar, read-out: Alpha 2C EC50

SMILES	Alpha 2A EC50 (alpha2A receptor)	EC50 (alpha2B receptor; RSAT, read-out: Alpha 2B EC50) [nM]	Alpha 2B IA (intrinsic activity) (alpha2B receptor)	Alpha 2C EC50 (alpha2C receptor; [1])	EC50 (alpha2C receptor; [2]) [nM]	Alpha 2C IA (intrinsic activity) (alpha2C receptor)	EC50 (alpha2A receptor) [nM]	Alpha 2A IA (intrinsic activity) (alpha2A receptor; ratio of maximal effect to that of standard full agonist brimonidine (UK14304))	EC50 (alpha2B receptor; Alpha 2B EC50, RSAT) [nM]	EC50 (alpha2C receptor) [nM]
Cc1cccc(C(Cc2cccs2)NC(=O)NCCF)c1 (stereo not drawn) [1-(2-fluoro-ethyl)-3-(2-thiophen-2-yl-1-m-tolyl-ethyl)-urea]	not active	37	1.08	not active						
O=C(NCCF)NC(Cc1ccccc1F)c1cccnc1 (stereo not drawn) [1-(2-fluoro-ethyl)-3-[2-(2-fluoro-phenyl)-1-pyridin-3-yl-ethyl]-urea]	not active	747	0.78	not active						
O=C(NCCF)NC(Cc1ccccc1F)c1ccncc1 (stereo not drawn) [1-(2-fluoro-ethyl)-3-[2-(2-fluoro-phenyl)-1-pyridin-4-yl-ethyl]-urea]	not active	2120	0.53	not active						
O=C(NCCF)NC(Cc1cccc(F)c1)c1cccc(C(F)(F)F)c1 (stereo not drawn) [1-(2-fluoro-ethyl)-3-[2-(3-fluoro-phenyl)-1-(3-trifluoromethyl-phenyl)-ethyl]-urea]	not active	84.2	0.84	not active						
O=C(NCCF)NC(Cc1cccc(F)c1)c1cccnc1 (stereo not drawn) [1-(2-fluoro-ethyl)-3-[2-(3-fluoro-phenyl)-1-pyridin-3-yl-ethyl]-urea]	not active	1990	0.41	not active						
O=C(NCCF)NC(Cc1ccc(F)cc1)c1cccnc1 (stereo not drawn) [1-(2-fluoro-ethyl)-3-[2-(4-fluoro-phenyl)-1-pyridin-3-yl-ethyl]-urea]	not active	2780	0.49	not active						
O=C(NCCF)NC(Cc1ccccc1)c1cccc2ccccc12 (stereo not drawn) [1-(2-fluoroethyl)-3-[1-(1-naphthyl)-2-phenylethyl]urea]	not active	160	0.77	not active						
COc1ccccc1C(Cc1ccccc1)NC(=O)NCCF (stereo not drawn) [1-(2-fluoroethyl)-3-[1-(2-methoxyphenyl)-2-phenylethyl]urea]	not active	51.2	0.88		78.9	0.42				
COc1ccc(C(Cc2ccccc2)NC(=O)NCCF)cc1 (stereo not drawn) [1-(2-fluoroethyl)-3-[1-(4-methoxyphenyl)-2-phenylethyl]urea]	not active	1060	0.3	not active						
Cc1ccc(C(Cc2ccccc2)NC(=O)NCCF)cc1 (stereo not drawn) [1-(2-fluoroethyl)-3-[1-(4-methylphenyl)-2-phenylethyl]urea]	not active	218	0.53	not active						
O=C(NCCF)NC(Cc1ccccc1F)c1ccccc1 (stereo not drawn) [1-(2-fluoroethyl)-3-[2-(2-fluorophenyl)-1-phenylethyl]urea]	not active	12.9	0.96	not active						
O=C(NCCF)NC(Cc1ccc(F)cc1)c1ccccc1 (stereo not drawn) [1-(2-fluoroethyl)-3-[2-(4-fluorophenyl)-1-phenylethyl]urea]	not active	51.3	0.93	not active						
O=C(NCCF)NC(Cc1ccccc1)c1cccs1 (stereo not drawn) [1-(2-fluoroethyl)-3-[2-phenyl-1-(2-thienyl)ethyl]urea]			0.99			0.35	346	0.35	28.5	119
O=C(NCCF)NC(Cc1ccccc1)c1ccccc1Cl (stereo not drawn) [1-[1-(2-chlorophenyl)-2-phenylethyl]-3-(2-fluoroethyl)urea]	not active	407	0.64		700	0.34				
